Results reported in patent publication US10689378B2, “Triazolopyridine compounds and uses thereof” (Novartis AG, priority 2016, dated 2020).
Read-outs that look alike come from different tables or passages of the source.

Experiments:
[1] = tested on: H3K27 methylation in G401 cell; test: ELISA (H3K27 methylation) assay in G401 cells; type: cell-based, human; conditions: Homo sapiens
Method in brief: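 G401 cells treated 48 h with 3-fold dilutions (8 or 12 points, top 20 μM). Acid-extracted histones probed by ELISA for H3K27me3 or H3K27me2 with ECL readout, normalized to total H3. Percent inhibition versus DMSO fitted to dose-response curve for IC50.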

EED (1-441)-His protein = molecular target: T1, EED (1-441)-His protein (Homo sapiens, UniProt O75530); test: EED-H3K27Me3 peptide competition binding assay by AlphaScreen
T1 construct: 30 nM EED (1-441)-His protein
Method in brief: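 Serially diluted compound (12 points, 3-fold) incubated 20 min with 30 nM EED(1-441)-His and 15 nM biotin-H3K27Me3(19-33) peptide in 25 mM HEPES pH 8, 0.02% Tween-20, 0.5% BSA. Ni-chelate acceptor/streptavidin donor beads (10 μg/mL each) added, 1 h rt dark; 615 nm emission normalized to controls, dose-response fit for IC50.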

[2] = G-401, H3K27 methylation ELISA, read-out: (c) IC50 ELISA Qualified
[3] = EED-H3K27Me3 peptide competition, AlphaScreen, read-out: (a) IC50 EED Alphascreen binding Qualified
[4] = G-401, read-out: (c) IC50, ELISA Qualified
[5] = read-out: (a) IC50, EED Alphascreen binding Qualified
[6] = G-401, read-out: (c) IC50 ELISA Qualified
[7] = read-out: (a) IC50 EED Alphascreen binding Qualified

T1 sequence (O75530 whole entry): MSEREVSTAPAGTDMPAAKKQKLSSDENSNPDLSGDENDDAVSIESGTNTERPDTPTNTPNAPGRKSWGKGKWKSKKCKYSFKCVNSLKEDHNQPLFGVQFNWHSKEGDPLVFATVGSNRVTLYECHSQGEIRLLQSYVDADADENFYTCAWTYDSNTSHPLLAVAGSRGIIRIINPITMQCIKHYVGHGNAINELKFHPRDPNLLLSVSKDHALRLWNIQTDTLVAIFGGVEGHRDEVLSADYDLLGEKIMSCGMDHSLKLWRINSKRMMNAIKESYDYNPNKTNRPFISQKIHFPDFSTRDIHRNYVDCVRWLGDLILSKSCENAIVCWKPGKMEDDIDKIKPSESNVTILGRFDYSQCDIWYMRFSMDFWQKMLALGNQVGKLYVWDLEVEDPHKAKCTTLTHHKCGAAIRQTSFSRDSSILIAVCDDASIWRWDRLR

| IC50 [1, 4] | IC50 (EED (1-441)-His protein; [5]) | Structure (SMILES) | further results |
| --- | --- | --- | --- |
| 529 nM | 160 nM | COc1ccccc1CNc1ccc(-c2ccccc2C)c2nncn12 [Example 46, N-(2-methoxybenzyl)-8-(o-tolyl)-[1,2,4]triazolo[4,3-a] pyridin-5-amine] |  |
| 168 nM | 31.6 nM | COc1cc(-c2ccc(NCc3ccccc3OC)n3cnnc23)ccn1 [Example 59, N-(2-methoxybenzyl)-8-(2-methoxypyridin-4-yl)-[1,2,4] triazolo[4,3-a]pyridin-5-amine] |  |
| 986 nM | 1270 nM | COc1c(F)cccc1CNc1ccc(-c2cccnc2)c2nncn12 [Example 144, N-(3-fluoro-2-methoxybenzyl)-8-(pyridin-3-yl)-[1,2,4]triazolo[4,3-a]pyridin-5-amine] |  |
| 400 nM | 162 nM | COc1cc(F)ccc1CNc1ccc(-c2cccnc2)c2nncn12 [Example 93, N-(4-fluoro-2-methoxybenzyl)-8-(pyridin-3-yl)-[1,2,4]triazolo[4,3-a]pyridin-5-amine] |  |
| 4240 nM | 320 nM | COc1ccccc1CNc1ccc(-c2ccc(-c3nn[nH]n3)cc2)c2nncn12 [Example 74, 8-(4-(2H-tetrazol-5-yl)phenyl)-N-(2-methoxybenzyl)-[1,2,4]triazolo[4,3-a] pyridin-5-amine] |  |
| 11000 nM | 1660 nM | COc1ccccc1CNc1ccc(-c2ccc(N3CCOCC3)c(Cl)c2)c2nncn12 [Example 65, 8-(3-chloro-4-morpholinophenyl)-N-(2-methoxybenzyl)-[1,2,4] triazolo[4,3-a]pyridin-5-amine] |  |
| 521 nM | 180 nM | COc1ccccc1CNc1ccc(-c2ccccc2)c2nncn12 [Example 23, N-(2-methoxybenzyl)-8-phenyl-[1,2,4]triazolo[4,3-a] pyridin-5-amine] |  |
| 733 nM | 344 nM | COc1c(F)cccc1CNc1ccc(-c2ccncc2)c2nncn12 [Example 137, N-(3-fluoro-2-methoxybenzyl)-8-(pyridin-4-yl)-[1,2,4]triazolo[4,3-a]pyridin-5-amine] |  |
| 74.2 nM | 127 nM | COc1ccccc1CNc1ccc(-c2c(C)nn(C)c2C)c2nncn12 [Example 110, N-(2-methoxybenzyl)-8-(1,3,5-trimethyl-1H-pyrazol-4-yl)-[1,2,4]triazolo[4,3-a] pyridin-5-amine] |  |

The next lines start with the molecule.

| Structure (SMILES) | IC50 [1, 4] | IC50 (EED (1-441)-His protein; [5]) | further results |
| --- | --- | --- | --- |
| COc1cccc(F)c1CNc1ccc(-c2cnc(N3CCOCC3)nc2C)c2nncn12 [Example 261, N-(2-fluoro-6-methoxybenzyl)-8-(4-methyl-2-morpholinopyrimidin-5-yl)-[1,2,4]triazolo[4,3-a]pyridin-5-amine] |  |  | IC50 [1, 2]: 7.8 nM; IC50 (EED (1-441)-His protein; [3]): 17.6 nM |
| COc1ccc(F)cc1CNc1ccc(-c2ccc(CN(C)C)cc2)c2nncn12 [Example 81, 8-(4-((dimethylamino)methyl)phenyl)-N-(5-fluoro-2-methoxybenzyl)-[1,2,4]triazolo[4,3-a]pyridin-5-amine] | 928 nM | 387 nM |  |
| COc1ccc(F)c(F)c1CNc1ccc(-c2ccc(S(C)(=O)=O)cc2)c2nncn12 [Example 244, N-(2,3-difluoro-6-methoxybenzyl)-8-(4-(methylsulfonyl)phenyl)-[1,2,4]triazolo[4,3-a]pyridin-5-amine] |  |  | IC50 [1, 2]: 277 nM; IC50 (EED (1-441)-His protein; [3]): 231 nM |
| COc1cccc(F)c1CNc1ccc(-c2cn(C)c(C)n2)c2nncn12 [Example 365, 8-(1,2-dimethyl-1H-imidazol-4-yl)-N-(2-fluoro-6-methoxybenzyl)-[1,2,4] triazolo[4,3-a]pyridin-5-amine] |  |  | IC50 [1, 6]: 278 nM; IC50 (EED (1-441)-His protein; [7]): 197 nM |
| COc1cc(F)cc(CNc2ccc(-c3ccc(CN(C)C)cc3)c3nncn23)c1 [Example 171, 8-(4-((dimethylamino)methyl)phenyl)-N-(3-fluoro-5-methoxybenzyl)-[1,2,4]triazolo[4,3-a]pyridin-5-amine] | 1100 nM | 839 nM |  |
| COc1c(F)cccc1CNc1ccc(-c2ccc(S(=O)(=O)C3CCN(C)CC3)cc2)c2nncn12 [Example 138, N-(3-fluoro-2-methoxybenzyl)-8-(4-((1-methylpiperidin-4-yl)sulfonyl)phenyl)-[1,2,4] triazolo[4,3-a]pyridin-5-amine] | 2900 nM | 1270 nM |  |
| COc1cc(CNc2ccc(-c3ccc(CN(C)C)cc3)c3nncn23)c(F)cc1F [Example 98, N-(2,4-difluoro-5-methoxybenzyl)-8-(4-((dimethylamino)methyl)phenyl)-[1,2,4]triazolo[4,3-a] pyridin-5-amine] | 287 nM | 359 nM |  |
| COc1cccc(CNc2ccc(-c3ccc(CN(C)C)cc3)c3nncn23)c1 [Example 14, 8-(4-((dimethylamino)methyl)phenyl)-N-(3-methoxybenzyl)-[1,2,4] triazolo[4,3-a]pyridin-5-amine] | 280 nM | 325 nM |  |
| COc1cccc(F)c1CNc1c(F)cc(-c2cccnc2C)c2nncn12 [Example 311, 6-fluoro-N-(2-fluoro-6-methoxybenzyl)-4-(2-methylpyridin-3-yl)-[1,2,4] triazolo[4,3-a]pyridin-7-amine] |  |  | IC50 [1, 2]: 833 nM; IC50 (EED (1-441)-His protein; [3]): 420 nM |
| COc1ccccc1-c1ccc(NCc2c(F)cccc2OC)n2cnnc12 [Example 191, N-(2-fluoro-6-methoxybenzyl)-8-(2-methoxyphenyl)-[1,2,4]triazolo[4,3-a] pyridin-5-amine] |  |  | IC50 [1, 2]: 996 nM; IC50 (EED (1-441)-His protein; [3]): 479 nM |
| COc1ccc(F)c(CNc2ccc(-c3cccnc3C)c3nncn23)c1 [Example 291, N-(2-fluoro-5-methoxybenzyl)-8-(2-methylpyridin-3-yl)-[1,2,4]triazolo[4,3-a] pyridin-5-amine] |  |  | IC50 [1, 2]: 84.9 nM; IC50 (EED (1-441)-His protein; [3]): 184 nM |
| COc1cc(F)cc(F)c1CNc1c(F)cc(-c2cnc(C)nc2C)c2nncn12 [Example 321, N-(2,4-difluoro-6-methoxybenzyl)-8-(2,4-dimethylpyrimidin-5-yl)-6-fluoro-[1,2,4]triazolo[4,3-a]pyridin-5-amine] |  |  | IC50 [1, 2]: 1530 nM; IC50 (EED (1-441)-His protein; [3]): 2660 nM |
| COc1cccc(F)c1CNc1ccc(-c2cn(C(C)C)nc2C(F)(F)F)c2nncn12 [Example 255, N-(2-fluoro-6-methoxybenzyl)-8-(1-isopropyl-3-(trifluoromethyl)-1H-pyrazol-4-yl)-[1,2,4]triazolo[4,3-a] pyridin-5-amine] |  |  | IC50 [1, 2]: 76.8 nM; IC50 (EED (1-441)-His protein; [3]): 189 nM |
| COc1cc(F)ccc1CNc1ccc(-c2ccc(S(=O)(=O)C3CCN(C)CC3)cc2)c2nncn12 [Example 153, N-(4-fluoro-2-methoxybenzyl)-8-(4-((1-methylpiperidin-4-yl)sulfonyl)phenyl)-[1,2,4]triazolo[4,3-a] pyridin-5-amine] | 223 nM | 168 nM |  |
| COc1c(F)cccc1CNc1ccc(-c2ccc(CN(C)C)cc2)c2nncn12 [Example 86, 8-(4-((dimethylamino)methyl)phenyl)-N-(3-fluoro-2-methoxybenzyl)-[1,2,4] triazolo[4,3-a]pyridin-5-amine] | 529 nM | 218 nM |  |
| CN(C)Cc1ccc(-c2ccc(NCc3cccc(F)c3)n3cnnc23)cc1 [Example 35, 8-(4-((dimethylamino)methyl)phenyl)-N-(3-fluorobenzyl)-[1,2,4] triazolo [4,3-a]pyridin-5-amine] | 3490 nM | 2570 nM |  |
| COc1ccc(F)cc1CNc1ccc(-c2ccc(S(C)(=O)=O)cc2)c2nncn12 [Example 116, N-(5-fluoro-2-methoxybenzyl)-8-(4-(methylsulfonyl)phenyl)-[1,2,4]triazolo[4,3-a]pyridin-5-amine] | 748 nM | 276 nM |  |
| COc1cccc(F)c1CNc1ccc(-c2cnc(N(C)C)nc2)c2nncn12 [Example 141, 8-(2-(dimethylamino)pyrimidin-5-yl)-N-(2-fluoro-6-methoxybenzyl)-[1,2,4] triazolo[4,3-a]pyridin-5-amine] | 761 nM | 118 nM |  |
| COc1cccc(F)c1CNc1ccc(-c2c(C)ccnc2C)c2nncn12 [Example 346, 8-(2,4-dimethylpyridin-3-yl)-N-(2-fluoro-6-methoxybenzyl)-[1,2,4]triazolo[4,3-a] pyridin-5-amine] |  |  | IC50 [1, 6]: 260 nM; IC50 (EED (1-441)-His protein; [7]): 142 nM |
| COc1cccc(F)c1CNc1ccc(-c2ccccc2C)c2nncn12 [Example 211, N-(2-fluoro-6-methoxybenzyl)-8-(o-tolyl)-[1,2,4] triazolo[4,3-a]pyridin-5-amine] |  |  | IC50 [1, 2]: 151 nM; IC50 (EED (1-441)-His protein; [3]): 103 nM |
| COc1ccc(F)c(CNc2ccc(-c3ccc(CN(C)C)cc3)c3nncn23)c1 [Example 49, 8-(4-((dimethylamino)methyl)phenyl)-N-(2-fluoro-5-methoxybenzyl)-[1,2,4] triazolo[4,3-a]pyridin-5-amine] | 140 nM | 164 nM |  |
| COc1ccc(F)c(CNc2ccc(-c3ccc(S(C)(=O)=O)nc3)c3nncn23)c1 [Example 122, N-(2-fluoro-5-methoxybenzyl)-8-(6-(methylsulfonyl)pyridin-3-yl)-[1,2,4]triazolo[4,3-a] pyridin-5-amine] | 138 nM | 313 nM |  |
| COc1ccccc1CNc1ccc(-c2ccc(CN3CCCC3)cc2)c2nncn12 [Example 60, N-(2-methoxybenzyl)-8-(4-(pyrrolidin-1-ylmethyl)phenyl)-[1,2,4]triazolo[4,3-a] pyridin-5-amine] | 56.5 nM | 40.2 nM |  |
